Test results published in patent US11090308B2, “Methods of treating liver disorders or lipid disorders with a THR-beta agonist” (Madrigal Pharmaceuticals, Inc., priority 2016, dated 2021).

Assays:
[1] = Plasma total radioactivity pharmacokinetics in SD rats (Group 2); assay type: in vivo, rat
Experimental: (§1) The study utilized 2 groups of male SD rats (Groups 1 and 2) and 1 group of male LE rats (Group 3); which were obtained from Hilltop Lab Animals, Inc. (Scottdale, Pa.). Group 1 was used for evaluation of excretion mass balance; Group 2 was used for evaluation of plasma total radioactivity PK; and Group 3 was used for evaluation of tissue distribution of total radioactivity. All rats received a single PO dose of [^14C]MGL-3196. The target dose was 5 mg/kg using a formulation prepared in a 4% DMSO/96% of 2% Klucel, 0.1% Tween-80, 0.09% methylparaben and 0.01% propylparaben in purified MilliQ water vehicle.

[2] = Dog 14C-MGL-3196 mass balance study; assay type: in vivo
Description: Tables 2A-2B show ^14C-MGL-3196 dog ADME study design.

[3] = Tissue distribution by quantitative whole-body autoradiography, blood and plasma radioactivity in LE rats (Group 3); assay type: in vivo, rat; settings: for Tissue to Plasma Ratio, Adrenal Gland / Tissue to Plasma Ratio, Heart / Tissue to Plasma Ratio, Kidney / Tissue to Plasma Ratio, Liver / Tissue to Plasma Ratio, Lung / Tissue to Plasma Ratio, Muscle / Tissue to Plasma Ratio, Skin / Tissue to Plasma Ratio, Spleen / Tissue to Plasma Ratio, Thyroid / Tissue to Plasma Ratio, Brain: rat
Experimental: as §1

[4] = Excretion mass balance in rats after a single oral dose of [14C]MGL-3196 (Group 1); assay type: in vivo, rat; settings: for Percent Recovery, Carcass / Percent Recovery, Residues / Percent Recovery, Total: totals up to 168 h
Experimental: as §1
The following studies have been conducted: (a) in vitro drug protein binding, transporter (organic anion transporting polypeptide [OATP], P-glycoprotein [P-gp], breast cancer-related protein [BCRP], and multiple drug resistance protein 1 [MDR1]), and cytochrome P-450 enzyme assays to investigate absorption, distribution, and excretion; (b) in vivo MGL-3196 rat and dog oral PK and bioavailability studies; (c) in vivo ^14C-MGL-3196 rat and dog oral pharmacokinetics, absorption, excretion, and tissue distribution by quantitative whole-body autoradiography (QWBA) studies; and (d) liver disposition of MGL-3196 using an in vitro sandwiched hepatocyte model system (B-CLEAR® technology) in dog (SCDH) and human (SCHH) hepatocytes.

[5] = male SD rats Group 2, single PO 5 mg/kg
[6] = 3 male beagle dogs, 0-168 hr post-dose, Mean ± SD (% RSD)
[7] = male LE rats Group 3, single PO 5 mg/kg
[8] = pigmented male rats, single PO dose
[9] = male SD rats Group 1, single PO 5 mg/kg, mean
[10] = male SD rats Group 1, single PO 5 mg/kg, mean, through 168 h

## CC(C)c1cc(Oc2c(Cl)cc(-n3nc(C#N)c(=O)[nH]c3=O)cc2Cl)n[nH]c1=O [[^14C]MGL-3196]
[1]; [5]
  mean AUCinf obs of plasma total radioactivity: 25346 ng equiv·h/mL
  mean Cmax of plasma total radioactivity: 2230 ng equiv/mL
[1]; male SD rats, last time point for this group
  radioactivity quantifiable in plasma through: 48 h
[2]; [6]
  % of Dose in Cage Residue: 4.55 ± 3.399 (74.8) %
  % of Dose in Feces: 76.3 ± 25.62 (33.6) %
  % of Dose in Urine: 2.57 ± 1.296 (50.4) %
  Total % of Dose Recovered (urine + feces + cage residue): 83.37 ± 24.063 (28.9) %
[2]; dog, 100 mg/kg
  % of total administered recovered in feces: ~83%
  % of total administered recovered in urine: 2.5%
  share of the radioactivity recovered that was in feces: at least 92%
  share of the radioactivity recovered that was in urine: 2.7%
[3]; 1 h
  Tissue to Plasma Ratio, Adrenal Gland: 0.34
  Tissue to Plasma Ratio, Heart: 0.30
  Tissue to Plasma Ratio, Kidney: 3.51
  Tissue to Plasma Ratio, Liver: 16.28
  Tissue to Plasma Ratio, Lung: 0.41
  Tissue to Plasma Ratio, Muscle: 0.12
  Tissue to Plasma Ratio, Skin: 0.21
  Tissue to Plasma Ratio, Spleen: 0.17
  Tissue to Plasma Ratio, Thyroid: 0.27
[3]; 2 h
  Tissue to Plasma Ratio, Adrenal Gland: 0.35
  Tissue to Plasma Ratio, Heart: 0.26
  Tissue to Plasma Ratio, Kidney: 2.28
  Tissue to Plasma Ratio, Liver: 12.40
  Tissue to Plasma Ratio, Lung: 0.42
  Tissue to Plasma Ratio, Muscle: 0.07
  Tissue to Plasma Ratio, Skin: 0.23
  Tissue to Plasma Ratio, Spleen: 0.10
  Tissue to Plasma Ratio, Thyroid: 0.45
[3]; 4 h
  Tissue to Plasma Ratio, Adrenal Gland: 0.28
  Tissue to Plasma Ratio, Brain: 0.03
  Tissue to Plasma Ratio, Heart: 0.29
  Tissue to Plasma Ratio, Kidney: 2.97
  Tissue to Plasma Ratio, Liver: 12.76
  Tissue to Plasma Ratio, Lung: 0.48
  Tissue to Plasma Ratio, Muscle: 0.07
  Tissue to Plasma Ratio, Skin: 0.30
  Tissue to Plasma Ratio, Spleen: 0.13
  Tissue to Plasma Ratio, Thyroid: 0.20
[3]; 8 h
  Tissue to Plasma Ratio, Adrenal Gland: 0.56
  Tissue to Plasma Ratio, Brain: 0.09
  Tissue to Plasma Ratio, Heart: 0.62
  Tissue to Plasma Ratio, Kidney: 2.98
  Tissue to Plasma Ratio, Liver: 11.90
  Tissue to Plasma Ratio, Lung: 0.68
  Tissue to Plasma Ratio, Muscle: 0.23
  Tissue to Plasma Ratio, Skin: 0.72
  Tissue to Plasma Ratio, Spleen: 0.36
  Tissue to Plasma Ratio, Thyroid: 0.46
[3]; Cmax
  Tissue to Plasma Ratio, Adrenal Gland: 0.51
  Tissue to Plasma Ratio, Brain: 0.08
  Tissue to Plasma Ratio, Heart: 0.57
  Tissue to Plasma Ratio, Kidney: 2.97
  Tissue to Plasma Ratio, Liver: 12.76
  Tissue to Plasma Ratio, Lung: 0.62
  Tissue to Plasma Ratio, Muscle: 0.21
  Tissue to Plasma Ratio, Skin: 0.65
  Tissue to Plasma Ratio, Spleen: 0.33
  Tissue to Plasma Ratio, Thyroid: 0.42
[3]; male LE rats
  Radioactivity concentrations at 1392 h post-dose in 7 of 40 tissues (blood, liver, Harderian gland, pancreas, pigmented skin, lung, eye lens): > 7.90 ng equiv/g
  radioactivity quantifiable in blood through: 768 h
  radioactivity quantifiable in plasma through: 168 h
[3]; [7]
  AUCinf obs of blood total radioactivity: 54361 ng equiv·h/g
  AUCinf obs of plasma total radioactivity: 20430 ng equiv·h/mL
  Cmax of plasma total radioactivity (by LSC): 1078 ng equiv/mL
[3]; [8]
  Liver AUC (exposure) higher than plasma: approximately 10 ×
  blood AUC higher than plasma: about 2 ×
  kidney cortex AUC higher than plasma: approximately 3 ×
  liver:plasma AUCall ratio: 10.5
[3]; pigmented male rats, single PO dose, listed as 14C-MGL-3196
  Liver AUC (exposure) higher than plasma: ~10 ×
[3]; throughout the distribution phase (up to 8 h post-dose)
  Tissue to plasma ratios for all tissues except liver, kidney, urinary bladder, and cecum: < 1
[4]; Mean
  Percent Recovery, Carcass: 1.1%
  Percent Recovery, Residues: 1.3%
  Percent Recovery, Total: 87.2%
[4]; Ra#3
  Percent Recovery, Carcass: 1.0%
  Percent Recovery, Residues: 0.9%
  Percent Recovery, Total: 87.3%
[4]; Rat#1
  Percent Recovery, Carcass: 1.1%
  Percent Recovery, Residues: 1.7%
  Percent Recovery, Total: 82.6%
[4]; Rat#2
  Percent Recovery, Carcass: 1.2%
  Percent Recovery, Residues: 1.3%
  Percent Recovery, Total: 91.7%
[4]; [9]
  radioactivity recovered in the cage residues, % of the administered dose: 1.3%
  radioactivity recovered in the carcass, % of the administered dose: 1.1%
[4]; [10]
  radioactivity recovered in the feces, % of the administered dose: 68.6%
  radioactivity recovered in the urine, % of the administered dose: 16.2%
  total recovery of radioactivity, % of the administered dose: 87.2%
